Experiments:
[1] = system: promastigote form of L. major; experiment: Growth inhibition of Leishmania major promastigotes; format: cell-based; conditions: read-out: IC50 of choline analogs in Leishmania major, WT
Experimental: For those drugs, IC50 values were determined.

[2] = system: choline transport in the wild-type strain of S. cerevisiae; experiment: [methyl-3H]-choline uptake in wild-type S. cerevisiae; format: cell-based, Saccharomyces cerevisiae
Experimental: Uptake Assays: Yeast strains were grown in synthetic complete medium supplemented as required to maintain cell growth to an optical density of 0.55-0.65 at 600 nm. Cells were harvested by centrifugation at 3,200×g for 10 min at 4° C., washed twice in cold PBS and resuspended in nitrogen-free medium (SD without ammonium sulfate). […] After 3 min incubation at 30° C. with shaking, transport was immediately stopped by filtration through Whatman GF/C glass microfiber paper. The filters were washed three times with 5 ml ice-cold PBS, air dried, and analyzed in a scintillation counter. For time course uptake, 3-4×10^7 cells were incubated at 30° C. in 1 ml of nitrogen-free medium in the presence of 25 nM [^3H]-T16 (69 Ci/mmol) for different time periods (1, 2, 3, 4, 5, 7, 10 and 15 min) after which 5 ml of cold PBS was added to stop the reaction. Kinetic parameters were determined after 4 min of incubation at 30° C. in the presence of [^3H]-T16 at concentrations ranging from 25 nM to 75 μM (69 Ci - 23 mCi/mol). The samples were centrifuged at 4° C. for 10 min at 1,200×g, the supernatants were discarded and the cells were then resuspended in 5 ml of cold PBS. The reaction was terminated by filtering the cell suspension through GF/C membranes that were pretreated with 15 ml of 0.05% polyethyleneimine (PEI). The filters were washed twice with 5 ml of cold PBS, air dried, and analyzed in a scintillation counter. The cellular accumulation ratio (CAR) was calculated as previously described for T16 and G25 (Biagini, et al., 2003; Wengelnik, et al., 2002).

[3] = system: de novo biosynthesis of PtdEtn from ethanolamine; experiment: Incorporation of radiolabeled ethanolamine into PtdEtn in P. falciparum-infected erythrocytes; format: cell-based, Plasmodium falciparum; conditions: concentrations up to 100 μM
Experimental: Labeling Studies and Phospholipid Analysis in P. falciparum: Nigerian strains of P. falciparum were asexually cultured in the presence of basic medium (RPMI 1640 supplemented with 25 mM Hepes, pH 7.4) and 10% AB^+ human serum (Trager and Jensen, 1976). Parasite synchronization was obtained with three successive 5% sorbitol treatments (Lambros and Vanderberg, 1979). Synchronized P. falciparum-infected erythrocytes (7-10% parasitemia, trophozoites) were pre-incubated for 1 hour at 37° C. at 4% hematocrit in 2 ml (final volume) basic medium in the absence or the presence of different concentrations of the compound G25. The appropriate radioactive precursor of lipid metabolism was added followed by further 3 h of incubation. Radioactive precursors were used as follows: 30 μM [methyl-^3H]-choline (334 mCi/mmol), 2 μM [^3H]-ethanolamine (2 Ci/mmol) and 10 μM [3-^14C]-serine (57 mCi/mmol). […] The silica gel of the lipid spots were scraped directly into scintillation vials containing 3 ml of liquid-scintillation fluid and counted in a Beckman LS 5000 spectrophotometer. The amount of labeled precursors incorporated into cellular lipids (nmol×10^7 cell^−1×h^−1) was computed on the basis of radioactivity incorporated into lipids and the specific activity of the precursors in the incubation medium. […]

[4] = system: S. cerevisiae wild type and knockouts of PtdCho biosynthesis genes; experiment: Plate growth limiting dilution assay of yeast phospholipid mutants with G25; format: cell-based, Saccharomyces cerevisiae; conditions: 5 μM G25, plate assay
Experimental: FIG. 9. Sensitivity to G25 of wild type and mutants affected in different steps of PtdCho biosynthesis. Plate growth limiting dilution assays were performed as described in Materials and Methods in the absence or the presence of 5 μM of G25. The strains and genes deleted in the strains used are described in “Material and Methods”.
Strains and Growth Conditions: Wild-type (BY4741: Mata his3Δ1 leu2Δ0 met15Δ0 ura3Δ0) and mutant (hnm1Δ, psd1Δ, cki1Δ, pem1Δ, ept1Δ, cpt1Δ, eki1Δ, psd2Δ, pct1Δ, ect1Δ, pem2Δ) S. cerevisiae strains used in this study were purchased from Research Genetics (Invitrogen, USA). These strains were grown on YPD (1% yeast extract, 2% dextrose and 2% peptone) or synthetic complete medium (SD, 1.7% yeast nitrogen base, 5% ammonium sulfate and 2% dextrose). The Nigerian strain of P. falciparum was propagated in human red blood cells at 4% hematocrit by the method of Trager and Jensen (1976). Plate growth assays were performed by growing wild-type and mutant yeast strains in YPD to mid-log phase. Cultures were serially diluted 1:10 starting with a density of 3×10^7 cells/ml. The growth of cells was monitored by spotting 3 μl of each dilution onto solid medium in the absence or presence of 5 μM of G25.
Sensitivity of mutants affected in phospholipid metabolism to choline analogs. […] However, the steps in the phospholipid biosynthesis pathways that are specifically targeted by these compounds are not yet known. To assess whether the mode of action of G25 is linked to disruption of phospholipid metabolism, yeast was used as a surrogate system to compare the sensitivity to G25 of the wild-type strain and eleven individual knockouts in the CDP-choline, CDP-ethanolamine and CDP-DAG pathways. […] No resistance was conferred by loss of the PtdEtn methyltransferases, Pem1 and Pem2, or the enzymes of the CDP-ethanolamine pathway. Furthermore, unlike psd1[…] strain, loss of the Golgi/vacuole PtdSer decarboxylase, Psd2, which synthesizes 5% of the PtdEtn pool only, had no effect on G25 sensitivity.

C[N+]1(CCCCCCCCCCCCCCCC[N+]2(C)CCCC2)CCCC1.[Br-].[Br-] [G25, 1,16-hexadecamethylenebis[N-methylpyrrolidinium]dibromide]
IC50 [1]: 8.1 µM | inhibition of choline transport ([2]; 20-fold excess over [methyl-3H]-choline): 50% | inhibition of choline transport ([2]; 100-fold excess over [methyl-3H]-choline): 84% | effect on incorporation of radiolabeled ethanolamine into PtdEtn [3]: no effect | effect of loss of Psd2 on sensitivity [4]: no effect | resistance conferred by loss of Cki1, Cpt1, Pct1 and Hnm1 (CDP-choline pathway) [4]: substantial resistance | resistance conferred by loss of Pem1, Pem2 or CDP-ethanolamine pathway enzymes [4]: No resistance | resistance of psd1 deletion strain [4]: highly resistant

Source: patent US20060025458A1, “Alkylammonium compounds as antifungal and antitrypanosomal agents” (University of Connecticut, priority 2004, published 2006)
